Reference: the NIST ThermoML archive (doi:10.1021/je040006u)
± gives the expanded uncertainty stated by the source.

Assays:
[1] = 101.3 kPa, Liquid, Pycnometric method
[2] = xn = mol fraction of the nth substance listed; settings: 101.3 kPa, Liquid, Pycnometric method, x1 = 1

mass density ([1]; 291.15 K) | mass density ([1]; 293.15 K) | mass density ([1]; 298.15 K) | mass density ([1]; 303.15 K) | mass density ([1]; 308.15 K) | mass density ([2]; 291.15 K) | mass density ([2]; 293.15 K) | mass density ([2]; 298.15 K) | mass density ([2]; 303.15 K) | mass density ([2]; 308.15 K) | SMILES
738.47 ± 2 kg/m3 | 737.2 ± 2 kg/m3 | 732.56 ± 2 kg/m3 | 728.2 ± 2 kg/m3 | 723.64 ± 2 kg/m3 |  |  |  |  |  | CCCNCCC [dipropylamine]
966.52 ± 2.6 kg/m3 | 964.88 ± 2.6 kg/m3 | 960.29 ± 2.6 kg/m3 | 955.76 ± 2.6 kg/m3 | 951.1 ± 2.6 kg/m3 |  |  |  |  |  | COCCO [2-methoxyethan-1-ol]
 |  |  |  |  | 966.52 ± 2.6 kg/m3 | 964.88 ± 2.6 kg/m3 | 960.29 ± 2.6 kg/m3 | 955.76 ± 2.6 kg/m3 | 951.1 ± 2.6 kg/m3 | COCCO [2-methoxyethan-1-ol] + CCCNCCC
